Experimental data as given in patent publication US11767296B2, “Heteroaryl compounds as kinase inhibitor” (FUJIAN HAIXI PHARMACEUTICALS CO., LTD, priority 2018, dated 2023).

What was measured:
CSF-1R = biological target: T1, CSF-1R (Homo sapiens, UniProt P07333); assay: CSF-1R kinase assay (HTRF kinEASE TK); format: biochemical; conditions: ATP 2.5 uM, enzyme 0.012 ng/ul, read-out: In vitro inhibitory activity of CSF-1R IC50
T1 construct: purchased Invitrogen PV3249
Procedure: Example 53: CSF-1R Kinase Assay
I. Materials and Instruments
• 2104 EnVision® Multilabel Reader (PerkinElmer) • OptiPlate-384, White Opaque 384-well MicroPlate (Cat.6007290, PerkinElmer) • HTRF kinEASE TK (Cat.62TKOPEC, Cisbio) • CSF-1R(Cat. PV3249, Invitrogen) • ATP 10 mM (Cat. PV3227, Invitrogen) • DTT 1 M (Cat. D5545, Sigma) • MgCl2 1 M (Cat. M8266, Sigma) • MnCl2 1 M (Cat.244589. Sigma)
II. Experimental Procedure
Substrate-TK and ATP were diluted to 5 times of the reaction concentration by 1×Kinase Buffer. CSF1R enzyme was diluted to 5×enzyme solution by 1×kinase buffer. Sa-XL665 was diluted to 4×Sa-XL665 solution by Detection Buffer. 100×TK-Ab-Cryptate Solution TK-Ab-Cryptate was diluted to 100×TK-Ab-Cryptate solution by Detection Buffer. 2. Experimental Procedure After all reagents had been prepared according to the above method, except enzymes, the sample was added after equilibrium to room temperature. • a. Firstly, 2.5% DMSO solution was prepared by using 1×kinase buffer (the high concentration of DMSO will affect the reaction and control the final concentration of DMSO to 1%). Then the compounds were diluted by 2.5% DMSO solution corresponding to the enzyme. The screening concentration of the compounds was 4 times gradient dilution from 1000 nM, and 8 concentrations. In addition to the control pore, 4 microlitres of diluted solution containing 2.5% DMSO were added to the reaction pore and 4 microlitres of previously prepared solution containing 2.5% DMSO were added to the control pore. • b. 2 microlitres of previously prepared TK-biotin substrate solution was added to all reaction pore (the amount of substrate used for enzyme screening is shown in Table 15). • c. Adding 2 microlitres of CSF1R enzyme solution of corresponding concentration (the amount of enzyme is shown in Table 15) to all reaction pore except negative pore. The negative pore is supplemented with 2 microlitres of enzyme corresponding to 1 xkinase buffer. After mixing, the compound and enzyme can be fully combined by incubating at room temperature for 10 minutes. • d. Enzyme reaction was initiated by adding 2 microlitres ATP solution of corresponding concentration to all reaction pore. The reaction time was 30 minutes (the corresponding ATP concentration and reaction time at enzyme screening were shown in Table 15). • e. Preparing the test solution 5 minutes before the end of kinase reaction. Streptavidin-XL665 and TK antibody europium cryptate (1:100) were prepared with detection buffer in the kit (the corresponding concentration of detection reagent for enzyme screening is shown in Table 15). • f. After the kinase reaction, 5 microlitres of diluted Streptavidin-XL665 were added to all reaction pore, mixing, and then the diluted TK antibody europium cryptate solution was added immediately. • g. After 1 hour reaction at room temperature, the fluorescence signals (320 nm stimulation, 665 nm, 615 nm emission) were detected by ENVISION (Perkinelmer) instrument. The inhibition rate of each pore was calculated by full active pore and background signal pore, and the average value of complex pore was obtained. Meanwhile, the half inhibitory activity (IC50) of each compound was fitted by professional drawing analysis software PRISM 5.0. The Flow Chart of the Experiment is as Follows:
3. Data Analysis Emission Ratio (ER)=665 nm Emission signal/615 nm Emission signal Inhibitory rate=(ERpositive−ERsample)/(ERpositive−ERnegative)*100% Using Graphpad Prism 5 and log (inhibitor) vs. normalized response to fit IC50 curve and calculate IC50 value. The IC50 data of the compounds prepared in Representative Examples 3-52 are as follows (Table 18): […]

NFS-60 cells = assay: NFS-60 cell assay (CCK proliferation, M-CSF stimulated); format: cell-based; conditions: Mus musculus, compound 0.5 uM, 72 h, 40 ng/mL M-CSF, read-out: inhibition ratio % (NFS-60 cell proliferation)
Procedure: Example 54: NFS-60 Cell Assay
1. Experimental Materials
Mouse Myelogenous Leukemia Cells (NFS-60)
Using DMSO to dissolve, and the required concentration was prepared with full culture medium without factors.
Penicillin-streptomycin: TRANS
Mouse M-CSF/CSF-1 Protein: Sino Biological Inc, No. 51112-MNAH
M-CSF: Qilu Pharmaceutical co., Ltd.
The logarithmic growth phase of NFS-60 cells (1640+10% FBS+40 ng/ml M-CSF+1% Penicillin-streptomycin) were centrifuged (1000 r/min) and cultured in a factor-free medium at 37° C., 5% CO2 for 24 hours. Centrifugating (1000 r/min), the culture medium was replaced by new culture medium including 40 ng/mL factors, and inoculated on 96-well plate by 2*10^4 cells/mL, 100 μL/hole. After 16 hours, the tested compounds were added 10 μL/hole, 3 duplicate holes per compound, 37° C., 5% CO2, continue to cultured for 72 h. Then 10 μL CCK reagent was added to each hole. After incubation for 4 hours, the absorbance of each hole was measured at 450 nm wavelength. According to Formula: Inhibitory rate (%)=(1-OD value of test pore/OD value of solvent control pore)×100% 3. Experimental Results The experimental results of the inhibition of NFS-60 cell proliferation by the compounds prepared in Example 3-52, 0.5 uM, are shown in the following table: […]

[1] = system: MC-38 transplanted tumors; assay: Animal pharmacodynamics experiment: MC-38 transplanted tumors in C57 mice; format: in vivo; conditions: 2 weeks; for inhibition in vivo at 30 mg/kg: Mus musculus, MC-38, po, 336 h, compound alone, 30 mg/kg intragastrically daily, read-out: inhibition ratio (tumor size, MC-38 transplanted tumors); for inhibition ratio (tumor size, MC-38 transplanted tumors): compound 30 mg/kg intragastrically daily + anti-PD1 10 mg/kg i.p. once every 3 days
Procedure: Example 55: Animal Pharmacodynamics Experiment
In this study. MC-38 cell lines were inoculated in C57 mice
Experimental animal: C57 mice, male, 5-6 weeks old (18-22 g)
Inoculation: 2×10^6/0.1 mL, Matrigel is added in 3:1 ratio
PD1: InVivoMAb anti-mouse PD-1 (CD279). BioXCell
Group: On day 4 after inoculating, all the mice were divided into 13 groups, respectively model group, the anti-PD1 2 mg/kg group, anti-PD110 mg/kg group, testing compounds alone, and the tested compound combine with anti-PD1 10 mg/kg. Compounds were intragastrically administered daily at a dose of 30 mg/kg and anti-PD1 was intraperitoneally injected once every 3 days. The drug was administered continuously for 2 weeks. In model group, 80% glycerol+20% CMC-Na was given daily.
Results: The experimental results of anti-PD1 combined with the compounds prepared in the representative example 3-52 on the inhibition of tumor size of MC-38 transplanted tumors are as follows: […]

T1 sequence (P07333 20-972): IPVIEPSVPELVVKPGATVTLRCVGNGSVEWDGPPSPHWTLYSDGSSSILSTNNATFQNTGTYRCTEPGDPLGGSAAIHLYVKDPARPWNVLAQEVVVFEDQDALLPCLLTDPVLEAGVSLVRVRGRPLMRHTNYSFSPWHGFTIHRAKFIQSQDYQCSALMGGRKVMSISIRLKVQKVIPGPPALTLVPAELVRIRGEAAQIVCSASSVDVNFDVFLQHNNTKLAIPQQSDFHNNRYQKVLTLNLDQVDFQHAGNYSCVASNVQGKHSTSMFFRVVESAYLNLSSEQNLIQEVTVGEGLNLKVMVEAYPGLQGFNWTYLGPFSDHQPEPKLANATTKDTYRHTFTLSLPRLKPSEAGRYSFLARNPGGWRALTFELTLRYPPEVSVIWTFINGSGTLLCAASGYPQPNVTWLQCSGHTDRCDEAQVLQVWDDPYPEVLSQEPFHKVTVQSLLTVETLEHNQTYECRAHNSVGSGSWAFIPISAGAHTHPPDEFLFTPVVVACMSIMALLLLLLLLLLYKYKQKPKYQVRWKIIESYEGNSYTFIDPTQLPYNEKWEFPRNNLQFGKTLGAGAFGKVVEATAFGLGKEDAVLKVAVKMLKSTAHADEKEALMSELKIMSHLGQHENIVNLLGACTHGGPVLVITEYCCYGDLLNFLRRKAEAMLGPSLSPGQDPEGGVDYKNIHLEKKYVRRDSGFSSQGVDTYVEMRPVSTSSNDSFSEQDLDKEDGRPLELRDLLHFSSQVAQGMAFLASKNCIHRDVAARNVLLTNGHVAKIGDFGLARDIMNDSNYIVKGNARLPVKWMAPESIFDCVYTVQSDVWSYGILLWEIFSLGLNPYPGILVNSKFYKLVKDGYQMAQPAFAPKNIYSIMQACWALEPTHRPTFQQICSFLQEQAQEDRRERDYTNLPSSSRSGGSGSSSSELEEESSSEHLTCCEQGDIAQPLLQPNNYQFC

IC50 (CSF-1R) | SMILES | inhibition at 0.5 µM (NFS-60 cells) | inhibition in vivo at 30 mg/kg [1] | inhibition ratio (tumor size, MC-38 transplanted tumors) [1]
≤ 50 nM | C[C@@H](Oc1cc(Cl)cnc1N)c1cccc(NC(=O)c2ccc3c(c2)S(=O)(=O)CC3)c1 [Compound 134, (R)-N-(3-(1-((2-amino-5-chloropyridin-3-yl)oxy)ethyl)-phenyl)-2,3-dihydrobenzo[b]thiophene-6-carboxamide 1,1-dioxide] | ≥ 50% | – | –
≤ 50 nM | CSc1ccc(C(=O)Nc2cccc([C@@H](C)Oc3cc(-c4cnn(C)c4)cnc3N)c2)cc1 [Compound 181, (R)-N-(3-(1-((2-amino-5-(1-methyl-1H-pyrazol-4-yl)pyridin-3-yl)oxy)ethyl)phenyl)-4-(methylthio)benzamide] | ≥ 50% | – | –
≤ 50 nM | Cc1ccc(C(=O)Nc2cccc([C@@H](C)Oc3cc(-c4cccnc4)cnc3N)c2)cc1N(C)C [Compound 206, (R)-N-(3-(1-((6-amino-[3,3′-bipyridin]-5-yl)oxy)ethyl)phenyl)-3-(dimethylamino)-4-methylbenzamide] | ≥ 50% | – | –
≤ 50 nM | C[C@@H](Oc1cc(-c2cnn(C)c2)cnc1N)c1cccc(NC(=O)c2cccc([S+](C)[O-])c2)c1 (stereo partly drawn) [Compound 367, N-(3-((R)-1-((2-amino-5-(1-methyl-1H-pyrazol-4-yl)pyridin-3-yl)oxy)ethyl)phenyl)-3-(methylsulfinyl)benzamide] | ≥ 50% | – | –
≤ 50 nM | CSc1cccc(C(=O)Nc2cccc([C@@H](C)Oc3cc(-c4cnn(C)c4)cnc3N)c2)c1 [Compound 180, (R)-N-(3-(1-((2-amino-5-(1-methyl-1H-pyrazol-4-yl)pyridin-3-yl)oxy)ethyl)phenyl)-3-(methylthio)benzamide] | ≥ 50% | – | –
≤ 50 nM | C[C@@H](Oc1cc(-c2cccnc2)cnc1N)c1cccc(NC(=O)c2cccc(N(C)C)c2)c1 [Compound 205, (R)-N-(3-(1-((6-amino-[3,3′-bipyridin]-5-yl)oxy)ethyl)phenyl)-3-(dimethylamino)benzamide] | ≥ 50% | – | –

Second part, the compound before the results:

SMILES | IC50 (CSF-1R) | inhibition at 0.5 µM (NFS-60 cells) | inhibition in vivo at 30 mg/kg [1] | inhibition ratio (tumor size, MC-38 transplanted tumors) [1]
C[C@@H](Oc1cc(-c2cccnc2)cnc1N)c1cccc(NC(=O)c2cccc(C3CC3)c2)c1 [Compound 200, (R)-N-(3-(1-((6-amino-[3,3′-bipyridin]-5-yl)oxy)ethyl)phenyl)-3-cyclopropylbenzamide] | – | ≥ 50% | – | –
C[C@@H](Oc1cc(-c2cnn(C)c2)cnc1N)c1cccc(NC(=O)c2cccc(C(F)(F)F)c2)c1 [Compound 169, (R)-N-(3-(1-((2-amino-5-(1-methyl-1H-pyrazol-4-yl)pyridin-3-yl)oxy)ethyl)phenyl)-3-(trifluoromethyl)benzamide] | – | ≥ 50% | – | –
Cc1cccc(C(=O)Nc2cccc([C@@H](C)Oc3cc(Cl)cnc3N)c2)c1Cl [Compound 85, (R)-N-(3-(1-((2-amino-5-chloropyridin-3-yl)oxy)ethyl)-phenyl)-2-chloro-3-methylbenzamide] | ≤ 50 nM | – | < 10% | +++ (+++: ≥30%)
Cc1cncc(C(=O)Nc2cccc([C@@H](C)Oc3cc(Cl)cnc3N)c2)c1 [Compound 83, (R)-N-(3-(1-((2-amino-5-chloropyridin-3-yl)oxy)ethyl)-phenyl)-5-methylnicotinamide] | ≤ 50 nM | – | < 10% | +++ (+++: ≥30%)
C[C@@H](Oc1cc(Cl)cnc1N)c1cccc(NC(=O)c2cc(C(F)(F)F)cc(S(C)(=O)=O)c2)c1 [Compound 150, (R)-N-(3-(1-((2-amino-5-chloropyridin-3-yl)oxy)ethyl)-phenyl)-3-(methylsulfonyl)-5-(trifluoromethyl)benzamide] | – | ≥ 50% | – | –
Cc1cccc(C(=O)Nc2cccc([C@H](C)Oc3cc(Cl)cnc3N)c2)c1 [Compound 54, (S)-N-(3-(1-((2-amino-5-chloropyridin-3-yl)oxy)ethyl)-phenyl)-3-methylbenzamide] | ≤ 50 nM | 10 to 50% | – | –
C[C@@H](Oc1cc(-c2cnn(C)c2)cnc1N)c1cccc(NC(=O)c2cccc(S(C)(=O)=O)c2)c1 [Compound 168, (R)-N-(3-(1-((2-amino-5-(1-methyl-1H-pyrazol-4-yl)pyridin-3-yl)oxy)ethyl)phenyl)-3-(methylsulfonyl)benzamide] | – | ≥ 50% | – | –
C[C@H](Oc1cc(Cl)cnc1N)c1cccc(NC(=O)c2cccc(C3CC3)c2)c1 [Compound 70, (S)-N-(3-(1-((2-amino-5-chloropyridin-3-yl)oxy)ethyl)-phenyl)-3-cyclopropylbenzamide] | – | ≥ 50% | – | –
COc1cccc(C(=O)Nc2cccc([C@@H](C)Oc3cc(Cl)cnc3N)c2)c1 [Compound 74, (R)-N-(3-(1-((2-amino-5-chloropyridin-3-yl)oxy)ethyl)-phenyl)-3-methoxybenzamide] | ≤ 50 nM | ≥ 50% | – | –
Cc1ccc(C(=O)Nc2cccc([C@@H](C)Oc3cc(Cl)cnc3N)c2)cc1C [Compound 132, (R)-N-(3-(1-((2-amino-5-chloropyridin-3-yl)oxy)ethyl)-phenyl)-3,4-dimethylbenzamide] | ≤ 50 nM | ≥ 50% | – | –
C[C@@H](Oc1cc(-c2cccnc2)cnc1N)c1cccc(NC(=O)c2cccc(S(C)(=O)=O)c2)c1 [Compound 199, (R)-N-(3-(1-((6-amino-[3,3′-bipyridin]-5-yl)oxy)ethyl)phenyl)-3-(methylsulfonyl)benzamide] | – | ≥ 50% | – | –
Cc1cc(C)cc(C(=O)Nc2cccc([C@@H](C)Oc3cc(Cl)cnc3N)c2)c1 [Compound 137, (R)-N-(3-(1-((2-amino-5-chloropyridin-3-yl)oxy)ethyl)-phenyl)-3,5-dimethylbenzamide] | – | ≥ 50% | – | –
